According to PubChem BioAssay AID1918996 (Molecular Pharmacology Branch, DTP, NCI, 2023):
pIC50: −log10 of the molar value.

System: 349418-098-R-PDC complex spheroid growth
Experiment: Anticancer human tumor 349418-098-R-PDC patient-derived lung adenocarcinoma cell line growth inhibition [AhR]
Conditions: for pIC50: curve of first compound; for viability, T/C: stronger effect = lower value; active means viability on the fitted dose curve at most 10% of control; inactive means the rest
How it was run: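 Spheroids combined tumor cells with HUVEC endothelial cells and human MSCs as stroma. AhR antagonists were paired with standard or investigational drugs, each dosed in half-log steps down from near clinical Cmax, or from 10 microM where Cmax was unknown.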

[1] = second compound 0.1 µM, first compound 0.000949 µM
[2] = second compound 0.1 µM, first compound 0.003 µM
[3] = second compound 0.1 µM, first compound 0.00949 µM
[4] = second compound 0.1 µM, first compound 0.03 µM
[5] = second compound 0.1 µM, first compound 0.0949 µM
[6] = second compound 0.1 µM, first compound 0.3 µM
[7] = second compound 0.316 µM, first compound 0.000949 µM
[8] = second compound 0.316 µM, first compound 0.003 µM
[9] = second compound 0.316 µM, first compound 0.00949 µM
[10] = second compound 0.316 µM, first compound 0.03 µM
[11] = second compound 0.316 µM, first compound 0.0949 µM
[12] = second compound 0.316 µM, first compound 0.3 µM
[13] = second compound 1 µM, first compound 0.000949 µM
[14] = second compound 1 µM, first compound 0.003 µM
[15] = second compound 1 µM, first compound 0.00949 µM
[16] = second compound 1 µM, first compound 0.03 µM
[17] = second compound 1 µM, first compound 0.0949 µM
[18] = second compound 1 µM, first compound 0.3 µM
[19] = second compound 3.16 µM, first compound 0.000949 µM
[20] = second compound 3.16 µM, first compound 0.003 µM
[21] = second compound 3.16 µM, first compound 0.00949 µM
[22] = second compound 3.16 µM, first compound 0.03 µM
[23] = second compound 3.16 µM, first compound 0.0949 µM
[24] = second compound 3.16 µM, first compound 0.3 µM
[25] = second compound 10 µM, first compound 0.000949 µM
[26] = second compound 10 µM, first compound 0.003 µM
[27] = second compound 10 µM, first compound 0.00949 µM
[28] = second compound 10 µM, first compound 0.03 µM
[29] = second compound 10 µM, first compound 0.0949 µM
[30] = second compound 10 µM, first compound 0.3 µM
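Further: spheroids exposed to agents for seven days before luminescence viability read.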
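Wherever viability, T/C is given: spheroids also contain HUVEC endothelial cells and human MSC stroma.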

CC(C)CC(NC(=O)C(Cc1ccccc1)NC(=O)c1cnccn1)B(O)O (stereo not given) + Cc1ccccc1N=Nc1ccc(NC(=O)c2ccnn2C)c(C)c1
8.93: pIC50 (second compound 1 µM)
> 9.02: pIC50 (second compound 0.1 µM) | pIC50 (second compound 0.316 µM) | pIC50 (second compound 10 µM)
8.97: pIC50 (second compound 3.16 µM)
inactive: viability, T/C [1] 46.8% | viability, T/C [2] 11.1% | viability, T/C [7] 48.2% | viability, T/C [8] 11.7% | viability, T/C [13] 58.5% | viability, T/C [14] 13.4% | viability, T/C [19] 53.7% | viability, T/C [20] 14% | viability, T/C [25] 41.6% | viability, T/C [26] 14.5%
active: viability, T/C [3] 3.13% | viability, T/C [4] 1.55% | viability, T/C [5] 1.77% | viability, T/C [6] 0.98% | viability, T/C [9] 2.73% | viability, T/C [10] 1.61% | viability, T/C [11] 1.03% | viability, T/C [12] 1.37% | viability, T/C [15] 2.69% | viability, T/C [16] 1.87% | viability, T/C [17] 1.39% | viability, T/C [18] 1.15% | viability, T/C [21] 2.77% | viability, T/C [22] 1.76% | viability, T/C [23] 1.72% | viability, T/C [24] 1.32% | viability, T/C [27] 2.75% | viability, T/C [28] 1.8% | viability, T/C [29] 1.43% | viability, T/C [30] 1.45%

CCc1c2c(nc3ccc(O)cc13)-c1cc3c(c(=O)n1C2)COC(=O)[C@]3(O)CC + Cc1ccccc1N=Nc1ccc(NC(=O)c2ccnn2C)c(C)c1
inactive: viability, T/C [1] 75.5% | viability, T/C [2] 57.2% | viability, T/C [3] 22.3% | viability, T/C [4] 12.3% | viability, T/C [7] 44.2% | viability, T/C [8] 32.8% | viability, T/C [9] 21% | viability, T/C [10] 9.78% | viability, T/C [13] 29.9% | viability, T/C [14] 27.3% | viability, T/C [15] 19.7% | viability, T/C [16] 10.3% | viability, T/C [19] 34.6% | viability, T/C [20] 33.5% | viability, T/C [21] 15.8% | viability, T/C [22] 10% | viability, T/C [25] 37.7% | viability, T/C [26] 27.6% | viability, T/C [27] 15.2% | viability, T/C [28] 10.4%
> 9.02: pIC50 (second compound 0.316 µM) | pIC50 (second compound 1 µM) | pIC50 (second compound 3.16 µM) | pIC50 (second compound 10 µM)
8.42: pIC50 (second compound 0.1 µM)
active: viability, T/C [5] 8.18% | viability, T/C [6] 7.18% | viability, T/C [11] 7.84% | viability, T/C [12] 5.78% | viability, T/C [17] 7.94% | viability, T/C [18] 6.46% | viability, T/C [23] 7.13% | viability, T/C [24] 6.47% | viability, T/C [29] 7.83% | viability, T/C [30] 6.4%

Nc1ccccc1NC(=O)c1ccc(CNC(=O)OCc2cccnc2)cc1 + Cc1ccccc1N=Nc1ccc(NC(=O)c2ccnn2C)c(C)c1
active: viability, T/C (second compound 0.1 µM, first compound 10 µM) 5.78% | viability, T/C (second compound 0.316 µM, first compound 10 µM) 5.9% | viability, T/C (second compound 1 µM, first compound 10 µM) 6.58% | viability, T/C (second compound 3.16 µM, first compound 10 µM) 5.98% | viability, T/C (second compound 10 µM, first compound 10 µM) 8.83%
5.90: pIC50 (second compound 0.1 µM)
6.00: pIC50 (second compound 0.316 µM) | pIC50 (second compound 1 µM) | pIC50 (second compound 3.16 µM)
inactive: viability, T/C (second compound 0.1 µM, first compound 0.0316 µM) 104% | viability, T/C (second compound 0.1 µM, first compound 0.1 µM) 97.7% | viability, T/C (second compound 0.1 µM, first compound 0.316 µM) 75.7% | viability, T/C (second compound 0.1 µM, first compound 1 µM) 64.6% | viability, T/C (second compound 0.1 µM, first compound 3.16 µM) 19.4% | viability, T/C (second compound 0.316 µM, first compound 0.0316 µM) 84.6% | viability, T/C (second compound 0.316 µM, first compound 0.1 µM) 85.3% | viability, T/C (second compound 0.316 µM, first compound 0.316 µM) 72% | viability, T/C (second compound 0.316 µM, first compound 1 µM) 52.1% | viability, T/C (second compound 0.316 µM, first compound 3.16 µM) 17.2% | viability, T/C (second compound 1 µM, first compound 0.0316 µM) 97.7% | viability, T/C (second compound 1 µM, first compound 0.1 µM) 76% | viability, T/C (second compound 1 µM, first compound 0.316 µM) 87.2% | viability, T/C (second compound 1 µM, first compound 1 µM) 47.6% | viability, T/C (second compound 1 µM, first compound 3.16 µM) 18.5% | viability, T/C (second compound 3.16 µM, first compound 0.0316 µM) 86.5% | viability, T/C (second compound 3.16 µM, first compound 0.1 µM) 82.5% | viability, T/C (second compound 3.16 µM, first compound 0.316 µM) 76.5% | viability, T/C (second compound 3.16 µM, first compound 1 µM) 50.1% | viability, T/C (second compound 3.16 µM, first compound 3.16 µM) 18.5% | viability, T/C (second compound 10 µM, first compound 0.0316 µM) 66.4% | viability, T/C (second compound 10 µM, first compound 0.1 µM) 60.9% | viability, T/C (second compound 10 µM, first compound 0.316 µM) 68.1% | viability, T/C (second compound 10 µM, first compound 1 µM) 48% | viability, T/C (second compound 10 µM, first compound 3.16 µM) 17%
6.04: pIC50 (second compound 10 µM)
